According to PubChem BioAssay (NCI):
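Five concentrations, 48 hours, 96-well plates. Abbreviation: GI50, concentration required for 50% inhibition of growth. The concentration for full growth arrest is given as TGI.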

Tests used:
Assay in all cases: NCI tumour cell line growth inhibition, 48 h
ACHN renal = test system: ACHN renal
OVCAR-8 ovarian = test system: OVCAR-8 ovarian
HT29 colon = test system: HT29 colon
SNB-75 CNS = test system: SNB-75 CNS
SF-268 CNS = test system: SF-268 CNS
HCC-2998 colon = test system: HCC-2998 colon
UACC-62 melanoma = test system: UACC-62 melanoma
SN12C renal = test system: SN12C renal
EKVX NSCLC = test system: EKVX NSCLC
HL-60(TB) leukemia = test system: HL-60(TB) leukemia
HCT-116 colon = test system: HCT-116 colon
A549 NSCLC = test system: A549 NSCLC
CAKI-1 renal = test system: CAKI-1 renal
DU-145 prostate = test system: DU-145 prostate
OVCAR-4 ovarian = test system: OVCAR-4 ovarian
HOP-92 NSCLC = test system: HOP-92 NSCLC
SF-295 CNS = test system: SF-295 CNS
TK-10 renal = test system: TK-10 renal
BT-549 breast = test system: BT-549 breast
T-47D breast = test system: T-47D breast
SK-OV-3 ovarian = test system: SK-OV-3 ovarian
KM12 colon = test system: KM12 colon
HCT-15 colon = test system: HCT-15 colon
PC-3 prostate = test system: PC-3 prostate
SK-MEL-2 melanoma = test system: SK-MEL-2 melanoma
IGROV1 ovarian = test system: IGROV1 ovarian
SK-MEL-5 melanoma = test system: SK-MEL-5 melanoma
SF-539 CNS = test system: SF-539 CNS
UO-31 renal = test system: UO-31 renal
M14 melanoma = test system: M14 melanoma
U251 CNS = test system: U251 CNS
OVCAR-5 ovarian = test system: OVCAR-5 ovarian
MDA-MB-435 = test system: MDA-MB-435
UACC-257 melanoma = test system: UACC-257 melanoma
A498 renal = test system: A498 renal
MALME-3M melanoma = test system: MALME-3M melanoma
LOX IMVI melanoma = test system: LOX IMVI melanoma
MDA-MB-231 breast = test system: MDA-MB-231 breast
HS 578T breast = test system: HS 578T breast
SW-620 colon = test system: SW-620 colon
NCI/ADR-RES ovarian = test system: NCI/ADR-RES ovarian
NCI-H23 lung = test system: NCI-H23 lung
NCI-H226 lung = test system: NCI-H226 lung
K-562 leukemia = test system: K-562 leukemia
MOLT-4 leukemia = test system: MOLT-4 leukemia
786-0 renal = test system: 786-0 renal
COLO 205 colon = test system: COLO 205 colon
NCI-H522 lung = test system: NCI-H522 lung
CCRF-CEM leukemia = test system: CCRF-CEM leukemia
HOP-62 NSCLC = test system: HOP-62 NSCLC
SNB-19 CNS = test system: SNB-19 CNS

CC(=O)OC12C=C(C)C(C(C)C1)C1C(=O)N(CCN3CCOCC3)C(=O)C12 (configuration not stated)
GI50 (ACHN renal): > 100 µM
TGI (ACHN renal): > 100 µM
GI50 (OVCAR-8 ovarian): > 100 µM
TGI (OVCAR-8 ovarian): > 100 µM
GI50 (HT29 colon): > 100 µM
TGI (HT29 colon): > 100 µM
GI50 (SNB-75 CNS): > 100 µM
TGI (SNB-75 CNS): > 100 µM
GI50 (SF-268 CNS): > 100 µM
TGI (SF-268 CNS): > 100 µM
GI50 (HCC-2998 colon): > 100 µM
TGI (HCC-2998 colon): > 100 µM
GI50 (UACC-62 melanoma): > 100 µM
TGI (UACC-62 melanoma): > 100 µM
GI50 (SN12C renal): > 100 µM
TGI (SN12C renal): > 100 µM
GI50 (EKVX NSCLC): > 100 µM
TGI (EKVX NSCLC): > 100 µM
GI50 (HL-60(TB) leukemia): > 100 µM
TGI (HL-60(TB) leukemia): > 100 µM
GI50 (HCT-116 colon): > 100 µM
TGI (HCT-116 colon): > 100 µM
GI50 (A549 NSCLC): > 100 µM
TGI (A549 NSCLC): > 100 µM
GI50 (CAKI-1 renal): > 100 µM
TGI (CAKI-1 renal): > 100 µM
GI50 (DU-145 prostate): > 100 µM
TGI (DU-145 prostate): > 100 µM
GI50 (OVCAR-4 ovarian): > 100 µM
TGI (OVCAR-4 ovarian): > 100 µM
GI50 (HOP-92 NSCLC): > 100 µM
TGI (HOP-92 NSCLC): > 100 µM
GI50 (SF-295 CNS): > 100 µM
TGI (SF-295 CNS): > 100 µM
GI50 (TK-10 renal): > 100 µM
TGI (TK-10 renal): > 100 µM
GI50 (BT-549 breast): > 100 µM
TGI (BT-549 breast): > 100 µM
GI50 (T-47D breast): > 100 µM
TGI (T-47D breast): > 100 µM
GI50 (SK-OV-3 ovarian): > 100 µM
TGI (SK-OV-3 ovarian): > 100 µM
GI50 (KM12 colon): > 100 µM
TGI (KM12 colon): > 100 µM
GI50 (HCT-15 colon): > 100 µM
TGI (HCT-15 colon): > 100 µM
GI50 (PC-3 prostate): > 100 µM
TGI (PC-3 prostate): > 100 µM
GI50 (SK-MEL-2 melanoma): > 100 µM
TGI (SK-MEL-2 melanoma): > 100 µM
GI50 (IGROV1 ovarian): > 100 µM
TGI (IGROV1 ovarian): > 100 µM
GI50 (SK-MEL-5 melanoma): > 100 µM
TGI (SK-MEL-5 melanoma): > 100 µM
GI50 (SF-539 CNS): > 100 µM
TGI (SF-539 CNS): > 100 µM
GI50 (UO-31 renal): > 100 µM
TGI (UO-31 renal): > 100 µM
GI50 (M14 melanoma): > 100 µM
TGI (M14 melanoma): > 100 µM
GI50 (U251 CNS): > 100 µM
TGI (U251 CNS): > 100 µM
GI50 (OVCAR-5 ovarian): > 100 µM
TGI (OVCAR-5 ovarian): > 100 µM
GI50 (MDA-MB-435): > 100 µM
TGI (MDA-MB-435): > 100 µM
GI50 (UACC-257 melanoma): > 100 µM
TGI (UACC-257 melanoma): > 100 µM
GI50 (A498 renal): > 100 µM
TGI (A498 renal): > 100 µM
GI50 (MALME-3M melanoma): > 100 µM
TGI (MALME-3M melanoma): > 100 µM
GI50 (LOX IMVI melanoma): > 100 µM
TGI (LOX IMVI melanoma): > 100 µM
GI50 (MDA-MB-231 breast): > 100 µM
TGI (MDA-MB-231 breast): > 100 µM
GI50 (HS 578T breast): > 100 µM
TGI (HS 578T breast): > 100 µM
GI50 (SW-620 colon): > 100 µM
TGI (SW-620 colon): > 100 µM
GI50 (NCI/ADR-RES ovarian): > 100 µM
TGI (NCI/ADR-RES ovarian): > 100 µM
GI50 (NCI-H23 lung): > 100 µM
TGI (NCI-H23 lung): > 100 µM
GI50 (NCI-H226 lung): > 100 µM
TGI (NCI-H226 lung): > 100 µM
GI50 (K-562 leukemia): > 100 µM
TGI (K-562 leukemia): > 100 µM
GI50 (MOLT-4 leukemia): > 100 µM
TGI (MOLT-4 leukemia): > 100 µM
GI50 (786-0 renal): > 100 µM
TGI (786-0 renal): > 100 µM
GI50 (COLO 205 colon): > 100 µM
TGI (COLO 205 colon): > 100 µM
GI50 (NCI-H522 lung): > 100 µM
TGI (NCI-H522 lung): > 100 µM
GI50 (CCRF-CEM leukemia): > 100 µM
TGI (CCRF-CEM leukemia): > 100 µM
GI50 (HOP-62 NSCLC): > 100 µM
TGI (HOP-62 NSCLC): > 100 µM
GI50 (SNB-19 CNS): > 100 µM
TGI (SNB-19 CNS): > 100 µM
